Where two headings read alike, the source gives them in different places.
Legend:
[1] = tested on: T cells (PBL) on TNF-α and IFN-α stimulated endothelial cells (EC); type: cell-based; conditions: FIG. 1
Method: (§1) We measured the transmigration of T cells (PBL) after 6 minutes incubation at 37° C. on TNF-α and IFN-α stimulated endothelial cells (EC) using phase contrast microscopy. Cultured ECs were stimulated by cytokines for 24 hours. Subsequently, peripheral blood lymphocytes (PBL) were purified from the blood of healthy donors. PEPITEM was added to the PBL and these were incubated on the endothelial cells for 6 minutes. Non-adherent PBLs were removed by washing with cell free buffer. Video-microscope images of adherent cells were made from at least 5 fields of view for each EC monolayer. Adherent lymphocytes were either, i) phase bright (PB) and adherent to the apical surface of the endothelium, or ii) phase dark (PD) and migrated through the EC monolayer. The percentage of migrated cells was calculated by dividing the number of migrated cells by the total number of adherent lymphocytes (PB+PD) and multiplying by 100. To determine whether PEPITEM targets T-cells or endothelial cells, we pre-treated T-cells, endothelial cells or both T cells and endothelial cells with PEPITEM.

[2] = tested on: T cells (PBL) on HUVEC where CDH15 or THBS1 were knock-down; experiment: T cell transmigration assay using endothelial cells with siRNA knock-down of CDH15 or THBS1; type: cell-based, human; conditions: FIG. 4
Method: as §1
HUVEC were plated in a 12 well plate (87500 cells per well) for 24 hours or until about 80% confluence. The relevant siRNA were added at a final concentration of 50 nM to 83.75 μl or 82.5 μl if duplex in Optimem media (Life Technologies Invitrogen Compounds). […]

CDH15-FC protein = molecular target: T1, CDH15-FC protein (Homo sapiens, UniProt P55291); experiment: Surface plasmon resonance (Biocore 3000), PEPITEM perfused over immobilised CDH15-FC; type: binding; conditions: PEPITEM perfused at increasing concentration; FIG. 5
T1 construct: Fc
Description: Gold-coated chips were used to analyse the interaction of CDH15 with PEPITEM in the Biocore 3000 instrument. CDH15-FC protein was immobilised on a Biocore chip. PEPITEM was perfused through the Biocore cell at increasing concentration. […] This provides further evidence that cadherin-15 is the PEPITEM receptor.

T1 sequence (P55291 with tags, fused parts or gaps limits assumed): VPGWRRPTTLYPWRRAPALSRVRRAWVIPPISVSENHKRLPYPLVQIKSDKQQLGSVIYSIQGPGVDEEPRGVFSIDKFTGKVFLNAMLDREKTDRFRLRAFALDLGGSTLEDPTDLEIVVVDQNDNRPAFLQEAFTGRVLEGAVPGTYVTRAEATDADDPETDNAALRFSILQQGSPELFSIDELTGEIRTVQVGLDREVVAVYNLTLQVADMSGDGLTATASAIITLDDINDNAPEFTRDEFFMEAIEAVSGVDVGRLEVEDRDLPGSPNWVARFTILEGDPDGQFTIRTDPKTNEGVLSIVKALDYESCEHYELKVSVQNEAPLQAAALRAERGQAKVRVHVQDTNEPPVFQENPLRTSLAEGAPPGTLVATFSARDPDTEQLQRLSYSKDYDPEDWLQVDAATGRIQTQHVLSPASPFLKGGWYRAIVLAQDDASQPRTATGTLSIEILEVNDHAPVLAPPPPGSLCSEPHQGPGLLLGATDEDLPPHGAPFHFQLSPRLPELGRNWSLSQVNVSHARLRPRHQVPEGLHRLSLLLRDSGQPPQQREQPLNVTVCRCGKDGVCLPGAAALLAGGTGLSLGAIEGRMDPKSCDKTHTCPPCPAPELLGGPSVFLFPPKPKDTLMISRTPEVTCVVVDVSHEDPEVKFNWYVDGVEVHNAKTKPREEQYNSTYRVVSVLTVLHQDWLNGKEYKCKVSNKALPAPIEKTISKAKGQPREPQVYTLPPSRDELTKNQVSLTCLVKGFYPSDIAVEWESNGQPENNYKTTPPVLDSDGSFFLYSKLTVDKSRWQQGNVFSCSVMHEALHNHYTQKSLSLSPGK

- binding to CDH15 protein (changes in SPR) (CDH15-FC protein): able to bind to the CDH15 protein
Substance: PEPITEM (SVTEQGAELSNEER; listed as Homo sapiens)
- inhibition of T cell transmigration ([1]; T-cells alone pre-treated with PEPITEM): ineffective at inhibiting transmigration
- inhibition of T cell transmigration ([1]; endothelial cells pre-treated with PEPITEM): transmigration is successfully inhibited
- inhibitory effect on T cell transmigration ([2]; endothelial cells with CDH15 (cadherin-15) knockdown): released T-cells from the inhibitory effects
- effect on T-cell trafficking ([2]; endothelial cells with THBS1 (thrombospondin-1) knockdown, presence of PEPITEM): no significant effect
